From patent EP3939664A1 (priority 2020, dated 2022)

What was measured:
SARS-CoV-2 [1] = assay: Cell monolayer protection assay (crystal violet staining of virus-induced cell death); format: cell-based, SARS-CoV-2 stock strain NL/2020; design: PC Max: unit: uM; conditions: for minimal effective concentration: Severe acute respiratory syndrome coronavirus 2, Vero C1008, minimum compound concentration protecting Vero-E6 cell monolayer from virus induced cell death, read-out: PC Min; for minimal effective concentration / PC Max: 72 hours, dilutions from 50µM to 780nM tested; for PC Max: maximum compound concentration protecting Vero-E6 cell monolayer from virus induced cell death
[2] = tested on: hCoV-229E-GFP virus (Human coronavirus 229E expressing Green Fluorescent Protein); assay: microbe, parasite or virus in culture; format: cell-based; conditions: Huh7-Lunet#3 cells, 72 hours at 33°C, read-out: reduction of hCoV-229E-GFP propagation
in vitro = conditions: human, huh7-lunet#3 cells
SARS-CoV-2 [3] = assay: Relative viral RNA content by real time qPCR; format: cell-based; conditions: for activity at 15 µM: Severe acute respiratory syndrome coronavirus 2, Vero C1008, 15µM compound, viral RNA by qPCR, relative to cells treated only with vehicle (DMSO)

| Structure (SMILES) | minimal effective concentration (SARS-CoV-2 [1]) | PC Max (SARS-CoV-2 [1]) | inhibition at 10 µM [2] | viability at 72 h, 10 µM (in vitro) | viral RNA levels by qPCR (result in words) (SARS-CoV-2 [3]) | activity at 15 µM (SARS-CoV-2 [3]) | protective activity against SARS-CoV-2 (result in words) (SARS-CoV-2 [1]; Figure 1, 0.78-50µM) |
| --- | --- | --- | --- | --- | --- | --- | --- |
| CCCCc1ccc(-c2ccc3nc(-c4ccc(OC)cc4)cc(C(=O)O)c3c2)cc1 [Example 3, 6-(4-butylphenyl)-2-(4-methoxyphenyl)quinoline-4-carboxylic acid] | 50 µM | 50 | – | – | – | – | – |
| COc1ccc(-c2cc(C(=O)O)c3cc(-c4ccc(C(C)(C)C)cc4)ccc3n2)cc1 [Example 4, 6-(4-(tert-butyl)phenyl)-2-(4-methoxyphenyl)quinoline-4-carboxylic acid] | 50 µM | 50 | 74% | 107% | – | – | – |
| CCc1ccc(-c2ccc3nc(-c4ccccc4)cc(C(=O)O)c3c2)cc1 [Example 12, 6-(4-ethylphenyl)-2-phenylquinoline-4-carboxylic acid] | 50 µM | 50 | – | – | – | – | – |
| CC(C)(C)c1ccc(-c2ccc3nc(-c4ccccc4)cc(C(=O)O)c3c2)cc1 [Example 14, 6-(4-(tert-butyl)phenyl)-2-phenylquinoline-4-carboxylic acid] | 50 µM | 50 | – | – | – | – | – |
| O=C(O)c1cc(-c2ccccc2)nc2ccc(-c3ccc(Cl)c(Cl)c3)cc12 [Example 16, 6-(3,4-dichlorophenyl)-2-phenylquinoline-4-carboxylic acid] | 50 µM | 50 | – | – | – | – | – |
| CCc1ccc(-c2ccc(-c3cc(C(=O)O)c4ccccc4n3)cc2)cc1 [Example 19, 2-(4'-ethyl-[1,1'-biphenyl]-4-yl)quinoline-4-carboxylic acid] | 50 µM | 50 | – | – | – | – | – |
| CCCCc1ccc(-c2ccc(-c3cc(C(=O)O)c4ccccc4n3)cc2)cc1 [Example 20, 2-(4'-butyl-[1,1'-biphenyl]-4-yl)quinoline-4-carboxylic acid] | 12.5 µM | 50 | – | – | virtually undetectable levels | 0.001% | – |
| CC(C)(C)c1ccc(-c2ccc(-c3cc(C(=O)O)c4ccccc4n3)cc2)cc1 [Example 21, 2-(4'-(tert-butyl)-[1,1'-biphenyl]-4-yl)quinoline-4-carboxylic acid] | 3.12 µM | 50 | – | – | virtually undetectable levels | 1e-05% | comparable efficacy to remdesivir |
| O=C(O)c1cc(-c2ccc(-c3ccc(Cl)c(Cl)c3)cc2)nc2ccccc12 [Example 23, 2-(3',4'-dichloro-[1,1'-biphenyl]-4-yl)quinoline-4-carboxylic acid] | 50 µM | 50 | – | – | – | – | – |
| O=C(O)c1cc(-c2ccc(-c3cccc(OC(F)(F)F)c3)cc2)nc2ccccc12 [Example 24, 2-(3'-(trifluoromethoxy)-[1,1'-biphenyl]-4-yl)quinoline-4-carboxylic acid] | 50 µM | 50 | – | – | – | – | – |
| CCCCc1ccc(-c2cccc(-c3cc(C(=O)O)c4ccccc4n3)c2)cc1 [Example 27, 2-(4'-butyl-[1,1'-biphenyl]-3-yl)quinoline-4-carboxylic acid] | 25 µM | 50 | – | – | – | – | – |
| CC(C)(C)c1ccc(-c2cccc(-c3cc(C(=O)O)c4ccccc4n3)c2)cc1 [Example 28, 2-(4'-(tert-butyl)-[1,1'-biphenyl]-3-yl)quinoline-4-carboxylic acid] | 25 µM | 50 | – | – | – | – | – |
| CCCCc1ccc(-c2ccc3c(C(=O)O)cc(-c4ccc(OC)cc4)nc3c2)cc1 [Example 33, 7-(4-butylphenyl)-2-(4-methoxyphenyl)quinoline-4-carboxylic acid] | 50 µM | 50 | – | – | – | – | – |
| COc1ccc(-c2cc(C(=O)O)c3ccc(-c4ccc(C(C)(C)C)cc4)cc3n2)cc1 [Example 34, 7-(4-(tert-butyl)phenyl)-2-(4-methoxyphenyl)quinoline-4-carboxylic acid] | 50 µM | 50 | – | – | – | – | – |
| CCc1ccc(-c2cccc3c(C(=O)O)cc(-c4ccc(OC)cc4)nc23)cc1 [Example 42, 8-(4-ethylphenyl)-2-(4-methoxyphenyl)quinoline-4-carboxylic acid] | 50 µM | 50 | – | – | – | – | – |
| COc1ccc(-c2cc(C(=O)O)c3cccc(-c4ccc(C(C)(C)C)cc4)c3n2)cc1 [Example 44, 8-(4-(tert-butyl)phenyl)-2-(4-methoxyphenyl)quinoline-4-carboxylic acid] | 12.5 µM | 50 | – | – | virtually undetectable levels | 0.01% | – |
| COc1ccc(-c2cc(C(=O)O)c3cccc(-c4ccc(Cl)c(Cl)c4)c3n2)cc1 [Example 46, 8-(3,4-dichlorophenyl)-2-(4-methoxyphenyl)quinoline-4-carboxylic acid] | 50 µM | 50 | – | – | – | – | – |
| COc1ccc(-c2cc(C(=O)O)c3cccc(-c4cccc(OC(F)(F)F)c4)c3n2)cc1 [Example 47, 2-(4-methoxyphenyl)-8-(3-(trifluoromethoxy)phenyl)quinoline-4-carboxylic acid] | 50 µM | 50 | – | – | – | – | – |
| CCCOc1ccc(-c2cccc3c(C(=O)O)cc(-c4ccc(OC)cc4)nc23)cc1 [Example 48, 2-(4-methoxyphenyl)-8-(4-propoxyphenyl)quinoline-4-carboxylic acid] | 50 µM | 50 | – | – | – | – | – |
| CCC(CC)COC(=O)[C@H](C)N[P@](=O)(OC[C@H]1O[C@@](C#N)(c2ccc3c(N)ncnn23)[C@H](O)[C@@H]1O)Oc1ccccc1 [Remdesevir, remdesivir, reference compound] | 0.78 µM | 50 | – | – | – | – | – |
